Assay results reported in the CheMixHub viscosity set.

Assay: xn = mol fraction of the nth substance listed

CCCCCCO + C1CCCCC1
Conditions	viscosity [mPa·s]
293.15 K, 100 kPa, x2 = 0.0817	4.68
293.15 K, 100 kPa, x2 = 0.1603	4.1
293.15 K, 100 kPa, x2 = 0.2421	3.55
293.15 K, 100 kPa, x2 = 0.3502	2.91
293.15 K, 100 kPa, x2 = 0.4409	2.45
293.15 K, 100 kPa, x2 = 0.5593	1.94
293.15 K, 100 kPa, x2 = 0.6517	1.64
293.15 K, 100 kPa, x2 = 0.7396	1.4
293.15 K, 100 kPa, x2 = 0.8512	1.18
293.15 K, 100 kPa, x2 = 0.9402	1.05
303 K, 101.33 kPa, x1 = 0.1	0.8842
303 K, 101.33 kPa, x1 = 0.2008	1.003
303 K, 101.33 kPa, x1 = 0.2997	1.155
303 K, 101.33 kPa, x1 = 0.4002	1.329
303 K, 101.33 kPa, x1 = 0.4994	1.58
303 K, 101.33 kPa, x1 = 0.6004	1.919
303 K, 101.33 kPa, x1 = 0.6986	2.266
303 K, 101.33 kPa, x1 = 0.8004	2.705
303 K, 101.33 kPa, x1 = 0.8991	3.173
303.15 K, 100 kPa, x2 = 0.0817	3.47
303.15 K, 100 kPa, x2 = 0.1603	3.06
303.15 K, 100 kPa, x2 = 0.2421	2.68
303.15 K, 100 kPa, x2 = 0.3502	2.23
303.15 K, 100 kPa, x2 = 0.4409	1.91
303.15 K, 100 kPa, x2 = 0.5593	1.56
303.15 K, 100 kPa, x2 = 0.6517	1.34
303.15 K, 100 kPa, x2 = 0.7396	1.14
303.15 K, 100 kPa, x2 = 0.8512	0.96
303.15 K, 100 kPa, x2 = 0.9402	0.86
303.15 K, 101 kPa, x1 = 0.6491	1.907
303.15 K, 101.33 kPa, x1 = 0.1085	0.9365
303.15 K, 101.33 kPa, x1 = 0.2023	1.058
303.15 K, 101.33 kPa, x1 = 0.3065	1.225
303.15 K, 101.33 kPa, x1 = 0.3939	1.392
303.15 K, 101.33 kPa, x1 = 0.5019	1.641
303.15 K, 101.33 kPa, x1 = 0.6052	1.93
303.15 K, 101.33 kPa, x1 = 0.701	2.255
303.15 K, 101.33 kPa, x1 = 0.7991	2.649
303.15 K, 101.33 kPa, x1 = 0.8894	3.088
308.15 K, 101 kPa, x1 = 0.6491	1.701
313 K, 101.33 kPa, x1 = 0.1	0.7554
313 K, 101.33 kPa, x1 = 0.2008	0.8505
313 K, 101.33 kPa, x1 = 0.2997	0.9723
313 K, 101.33 kPa, x1 = 0.4002	1.115
313 K, 101.33 kPa, x1 = 0.4994	1.302
313 K, 101.33 kPa, x1 = 0.6004	1.526
313 K, 101.33 kPa, x1 = 0.6986	1.781
313 K, 101.33 kPa, x1 = 0.8004	2.083
313 K, 101.33 kPa, x1 = 0.8991	2.417
313.15 K, 100 kPa, x2 = 0.0817	2.61
313.15 K, 100 kPa, x2 = 0.1603	2.33
313.15 K, 100 kPa, x2 = 0.2421	2.04
313.15 K, 100 kPa, x2 = 0.3502	1.72
313.15 K, 100 kPa, x2 = 0.4409	1.49
313.15 K, 100 kPa, x2 = 0.5593	1.24
313.15 K, 100 kPa, x2 = 0.6517	1.08
313.15 K, 100 kPa, x2 = 0.7396	0.93
313.15 K, 100 kPa, x2 = 0.8512	0.79
313.15 K, 100 kPa, x2 = 0.9402	0.72
313.15 K, 101 kPa, x1 = 0.6491	1.63
323 K, 101.33 kPa, x1 = 0.1	0.65
323 K, 101.33 kPa, x1 = 0.2008	0.7271
323 K, 101.33 kPa, x1 = 0.2997	0.8205
323 K, 101.33 kPa, x1 = 0.4002	0.9237
323 K, 101.33 kPa, x1 = 0.4994	1.061
323 K, 101.33 kPa, x1 = 0.6004	1.239
323 K, 101.33 kPa, x1 = 0.6986	1.433
323 K, 101.33 kPa, x1 = 0.8004	1.658
323 K, 101.33 kPa, x1 = 0.8991	1.896
323.15 K, 100 kPa, x2 = 0.0817	2.02
323.15 K, 100 kPa, x2 = 0.1603	1.8
323.15 K, 100 kPa, x2 = 0.2421	1.6
323.15 K, 100 kPa, x2 = 0.3502	1.36
323.15 K, 100 kPa, x2 = 0.4409	1.19
323.15 K, 100 kPa, x2 = 0.5593	1
323.15 K, 100 kPa, x2 = 0.6517	0.87
323.15 K, 100 kPa, x2 = 0.7396	0.77
323.15 K, 100 kPa, x2 = 0.8512	0.67
323.15 K, 100 kPa, x2 = 0.9402	0.61

O=C1CCCCC1 + CCC(C)O
298.15 K, 101 kPa
Conditions	viscosity [mPa·s]
x1 = 0.1006	2.33
x1 = 0.209	1.9
x1 = 0.3005	1.66
x1 = 0.403	1.55
x1 = 0.4997	1.51
x1 = 0.6988	1.57
x1 = 0.8007	1.66
x1 = 0.8986	1.79
